ChEMBL document CHEMBL4680194, “Synthesis and biological evaluation of 1,2,4-triazole derivatives as potential neuroprotectant against ischemic brain injury” (Eur J Med Chem, 2020)
Active and inactive are the calls of the source. The calls are words filed in the database; no cut-off is given here.

Columns and labels:
PC-12 [1] = assay: Cytoprotective activity against SNP-induced cell death in rat PC-12 cells assessed as increase in cell viability incubated for 1 hr followed by SNP stimulation and measured after 24 hrs by LDH assay; type: functional, cell-based; details: time 25.0 hrs
PC-12 [2] = assay: Cytoprotective activity against H2O2-induced cell death in rat PC-12 cells assessed as increase in cell viability incubated for 1 hr followed by H2O2 stimulation and measured after 5 hrs by LDH assay; type: functional, cell-based; details: time 6.0 hrs
PC-12 [3] = assay: Cytoprotective activity against SNP-induced cell death in rat PC-12 cells assessed as increase in cell viability at 10 uM incubated for 1 hr followed by SNP stimulation and measured after 24 hrs by MTT assay; type: functional; details: time 25.0 hrs
PC-12 [4] = assay: Cytoprotective activity against H2O2-induced cell death in rat PC-12 cells assessed as increase in cell viability at 10 uM incubated for 1 hr followed by H2O2 stimulation and measured after 5 hrs by MTT assay; type: functional; details: time 6.0 hrs
[5] = Metal chelating activity of the compound assessed as Fe2+-compound complex formation incubated for 10 mins in presence of ferrozine by UV-visible spectrophotometry

| Compound | Activity (PC-12 [1]) | Activity (PC-12 [2]) | Activity (PC-12 [3]) | Activity (PC-12 [4]) | IC50 ([5]; read-out: IC50) | IC50 [5] |
| --- | --- | --- | --- | --- | --- | --- |
| NS(=O)(=O)c1ccc(-n2nc(-c3ccccc3O)nc2-c2ccccc2O)cc1 | Dose-dependent effect | Dose-dependent effect | Active | Active | 42.9 µM |  |
| Cc1ccc(-c2nc(-c3ccccc3O)n(-c3ccc(S(N)(=O)=O)cc3)n2)c(O)c1 | Dose-dependent effect | Dose-dependent effect | Active | Active | 35.1 µM |  |
| NS(=O)(=O)c1ccc(-n2nc(-c3ccc(C(F)(F)F)cc3)nc2-c2ccccc2O)cc1 |  |  | inactive | inactive |  | Not Active |
| NS(=O)(=O)c1ccc(-n2nc(-c3ccc([N+](=O)[O-])cc3O)nc2-c2ccccc2O)cc1 | Dose-dependent effect | Dose-dependent effect | Active | Active | 27.5 µM |  |
| NS(=O)(=O)c1ccc(-n2nc(-c3ccc(Cl)cc3O)nc2-c2ccccc2O)cc1 | Dose-dependent effect | Dose-dependent effect | Active | Active | 36 µM |  |
| Cc1ccc(-c2nc(-c3ccc(C)cc3O)n(-c3ccc(S(N)(=O)=O)cc3)n2)c(O)c1 |  |  | inactive | inactive |  |  |
| NS(=O)(=O)c1ccc(-n2nc(-c3ccc([N+](=O)[O-])cc3)nc2-c2ccccc2O)cc1 |  |  | inactive | inactive |  | Not Active |
| NS(=O)(=O)c1ccc(-n2nc(-c3ccc(F)cc3O)nc2-c2ccc(F)cc2O)cc1 |  |  | inactive | inactive |  |  |
| NS(=O)(=O)c1ccc(-n2nc(-c3ccccc3)nc2-c2ccccc2O)cc1 |  |  | inactive | inactive |  | Not Active |
| NS(=O)(=O)c1ccc(-n2nc(-c3ccc(F)cc3)nc2-c2ccccc2O)cc1 |  |  | inactive | inactive |  | Not Active |
| NS(=O)(=O)c1ccc(-n2nc(-c3ccc(C(F)(F)F)cc3O)nc2-c2ccccc2O)cc1 | Dose-dependent effect | Dose-dependent effect | Active | Active | 22.6 µM |  |
| NS(=O)(=O)c1ccc(-n2nc(-c3ccc(C(F)(F)F)cc3O)nc2-c2ccc(C(F)(F)F)cc2O)cc1 |  |  | inactive | inactive |  |  |
| NS(=O)(=O)c1ccc(-n2nc(-c3ccc(F)cc3O)nc2-c2ccccc2O)cc1 | Dose-dependent effect | Dose-dependent effect | Active | Active | 46.2 µM |  |
